In patent US12544347B2, “Anti-cancer combination and a method of therapy using the combination” (NATIONAL CENTRE FOR CELL SCIENCE, priority 2018, dated 2026):
Counter-ions that a name gives are not always drawn.

Key:
Type in all cases: cell-based
LN-18 cells = test: MTT assay, cell viability in LN-18 cells (monolayer or multicellular spheroids); conditions: 24 hr
Procedure: (§1) FIG. 1 depicts cell viability assessed by MTT assay in GBM cell lines-LN-18 and LN-229 using tamoxifen (TAM) at concentration of 5 μg/ml, 10 μg/ml and 15 μg/ml; individually and in combination with Valproic Acid (VPA) (2 mM) wherein the cells were cultured as monolayer (ML) or Multicellular Spheroids (MCS). Unt-open bar-represents untreated cells and hatched bar—[…] (2 mM). Further, the open bars (in 5, 10 15) depict TAM alone and the hatched bars depict TAM in combination with VPA. FIG. 1 also depicts the P values (represented as *) significant for differences between TAM alone versus TAM+VPA. The images are LN-18 cells grown as 2D cultures—ML and 3D-MCS.
FIG. 3 depicts the effect of Valpromide (VPM), an analogue of VPA causing sensitization of tamoxifen (TAM) which induced cell death in LN-18 cells cultured as monolayer (ML). […] The P values (represented as *) are significant for differences between TAM alone versus TAM+VPA/VPM.
MTT assay was employed for assessing the combined action of tamoxifen (TAM) and VPA. LN-18 cells and LN-229 were seeded in 96 well plate (5000 cells/100 ul/well) in complete medium and cultured for 24 hr in two culture models-monolayer and 3D culture. Cells were treated with tamoxifen (TAM) at 3 concentrations-5 μg/ml, 10 μg/ml and 15 μg/ml either individually or in combination with Valproic Acid (VPA) (2 mM) for 24 hr. MTT was added and after 4 hr the crystals were solubilized using DMSO. Absorbance was recorded at 490 nm (test filter) and 570 nm (reference filter). The % cell viability in treated cells was calculated considering the readings in untreated cells as 100%. The results are presented at FIG. 1. […] From FIG. 1, it is evident that the combination of the present invention is synergistic.
LN-18 cells (ML) were seeded in 96 well plate (5000 cells/100 ul/well) in complete medium and cultured for 24 hr. […] Absorbance was recorded at 490 nm (test filter) and 570 nm (reference filter). The % cell viability with treatment was calculated with readings in untreated cells considered as 100%. […]

LN-229 cells = test: MTT assay, cell viability in LN-229 cells (monolayer or multicellular spheroids); conditions: LN-229 MCS; TAM alone; 24 hr
Procedure: as §1
MTT assay was employed for assessing the combined action of tamoxifen (TAM) and VPA. LN-18 cells and LN-229 were seeded in 96 well plate (5000 cells/100 ul/well) in complete medium and cultured for 24 hr in two culture models-monolayer and 3D culture. Cells were treated with tamoxifen (TAM) at 3 concentrations-5 μg/ml, 10 μg/ml and 15 μg/ml either individually or in combination with Valproic Acid (VPA) (2 mM) for 24 hr. MTT was added and after 4 hr the crystals were solubilized using DMSO. Absorbance was recorded at 490 nm (test filter) and 570 nm (reference filter). The % cell viability in treated cells was calculated considering the readings in untreated cells as 100%. The results are presented at FIG. 1. […]

[1] = tested on: prostate apoptosis response (Par)-4; test: Western blotting of intracellular and secretory Par-4 in LN-18 cells; conditions: TAM 10 μg/ml, VPA 2 mM, alone or combined, 48 hr
Procedure: FIG. 4 depicts the effect of combination of tamoxifen (10 μg/ml) and valproic acid (2 mM) on the levels of secretory Par-4 and expression of GRP78 in […] cells wherein the control (C) represents untreated cells, V represents for valproic acid, T represents for tamoxifen and V+T represents combination of tamoxifen and valproic acid. The LN-18 cells were treated with tamoxifen or valproic acid alone or in combination for 48 hrs.
LN-18 cells were seeded in 6 well plate (0.3 million cells/well) and treated with TAM (10 μg/ml) and VPA (2 mM) either individually or in combination for 48 hr. Cell lysates were assessed for expression of intracellular prostate apoptosis response (Par)-4 and secretory Par-4 was measured in supernatants. Western blotting was done using 10% gels and the proteins were identified using specific antibodies followed by probing with luminol-based Enhanced Chemiluminescent (ECL) western blotting substrate. The results are presented at FIG. 4.

[2] = tested on: prostate apoptosis response (Par)-4; test: Western blotting of intracellular Par-4 in LN-229 cells; conditions: LN-229 cell lysates; TAM 12 μg/ml, VPA 2 mM, alone or combined; 24 hr
Procedure: FIG. 5 depicts the effect of tamoxifen (12 μg/ml) or valproic acid (2 mM) alone or combination of tamoxifen and valproic acid on Par-4 expression in LN-229 cells for 24 hr. GAPDH was used as loading control and control group (C) represents untreated cells. LN-229 cells were seeded in 6 well plate (0.3 million cells/well) and treated with TAM (12 μg/ml) and VPA (2 mM) either individually or in combination for 24 hr. Cell lysates were assessed for expression of intracellular prostate apoptosis response (Par)-4. Western blotting was done using 10% gels and the proteins were identified using specific antibodies followed by probing with luminol-based Enhanced Chemiluminescent (ECL) western blotting substrate.

SMILES	effect on % cell viability (MTT) (LN-18 cells; LN-18 MCS, TAM alone)	effect on % cell viability (MTT) (LN-18 cells; LN-18 cells, TAM 15 ug/ml alone)	effect on % cell viability (MTT) (LN-18 cells; monolayer, TAM 5, 10 and 15 μg/ml alone)	effect on % cell viability (MTT) (LN-229 cells)	cellular Par-4 level (western blot) ([1]; LN-18 cell lysates)	secretory Par-4 level (western blot) ([1]; LN-18 supernatants)	cellular Par-4 expression (western blot) [2]
CC/C(=C(\c1ccccc1)c1ccc(OCCN(C)C)cc1)c1ccccc1 [TAM, (Z)-2[p[(1,2-diphenyl-1-butenyl)phenoxyl]-N,N-dimethylamine citrate]	resistant	toxic	dose dependent	resistant	enhanced	enhanced	
CCCC(CCC)C(=O)O [VPA, Valproic acid]							induced
